The test system of experiment [1] is Caenorhabditis elegans. In words: Induction of oocyte production in Caenorhabditis elegans Bristol isolate N2 with puf-1; lip-1 double mutant.
The test system of experiment [2] is Caenorhabditis elegans. In words: Induction of oocyte production in Caenorhabditis elegans Bristol isolate N2 with […]; lip-1 double mutant at 100 uM. It is filed as functional.
In experiment [3] the test system is Caenorhabditis elegans. In words: Induction of oocyte production in Caenorhabditis elegans Bristol isolate N2 with […]; lip-1 double mutant assessed as change in oocyte-specific cellular morphology at 50 uM. It is filed as functional.
The test system of experiment [4] is Caenorhabditis elegans. Briefly: Induction of oocyte production in Caenorhabditis elegans Bristol isolate N2 with […]; lip-1 double mutant assessed as expression of oocyte marker RME-2 50 uM. It is filed as functional, organism-based.
In experiment [5] the test system is Caenorhabditis elegans. Briefly: Decrease in activated MPK-1/ERK levels in Caenorhabditis elegans Bristol isolate N2 by Western blot method at 50 uM. It is filed as functional, organism-based.

Active and inactive are the calls of the source. The rule behind the calls is not given here.

One may read the EC50 as the concentration giving half of the maximal effect. High values mean lower potency in that assay, low ones higher potency in that assay.

As for `N#CC(=C(/N)Sc1ccccc1N)/C(C#N)=C(\N)Sc1ccccc1N`, the EC50 in experiment [1] amounted to 2 µM. As for `COc1cccc(-c2cc(=O)c3ccccc3o2)c1N`, the Activity in experiment [2] is 5.3%. As to `O=C(NOC[C@H](O)CO)c1ccc(F)c(F)c1Nc1ccc(I)cc1F` [MIRDAMETINIB], the Activity in experiment [3] amounted to 91%. The result in experiment [4] and in experiment [5] was Active.

For the origin of these results see ChEMBL document CHEMBL1212807, “Chemical reprogramming of Caenorhabditis elegans germ cell fate” (Nat Chem Biol, 2010).
